Data taken from patent publication US20070225344A1, “Sulfonamide derivatives to treat infection with hepatitis C virus” (priority 2006, published 2007).

Molecular target: T1, HCV RdRp NS5B d21BK (BK strain, 1b subtype) (Hepatitis C virus genotype 1b, UniProt P26663)
T1 construct: NS5B from the BK strain (1b subtype) is expressed in E. coli as a protein in which the 21 C-terminal amino acids are replaced; made in house; host or cells: E. coli
Experiment: HCV polymerase (NS5B) RNA-dependent RNA polymerase inhibition, 33P-GTP filter assay
Assay type: biochemical
Settings: in vitro; NS5B BK strain (1b subtype), 24 nM enzyme, 2 h at room temperature; read-out: HCV Polymerase Median IC50
From the text: The ability of the compounds of the present invention to inhibit hepatitis C polymerase was established by the following experimental procedure:
NS5B from the BK strain (1b subtype) is expressed in E. coli as a protein in which the 21 C-terminal amino acids are replaced with a short linker and a hexahistidine tag (GSHHHHHH). The purified protein is mixed with radioactive nucleotides and allowed to replicate a heteropolymeric RNA substrate, primed by an endogenous short hairpin, resulting in an approximately 760 nt product. The radioactive product is captured on a filter and quantitated after removal of the unincorporated nucleotides.
(1) Compounds 10 μl at 10 μg/ml in 15% DMSO
Add 20 μl enzyme mix into each well of the assay plate. Incubate compound and enzyme at room temperature for 15 minutes.
(3) Template Mix—Prepare Ahead.
Spin down a tube of RNA (5 μg/tube stored in 75% ethanol and 0.3 M sodium acetate) in a microcentrifuge for 20 min. at 4° C. One tube is enough for 1 to 1½ plates. Remove as much ethanol from the tube as possible by inverting the tube. Be gentle, pellet RNA may not adhere to the tube. Vacuum dry the RNA. Resuspend the RNA by adding 1 ml of DEPC water, close the cap of the tube tightly. To dissolve RNA, incubate RNA solution on ice for ˜60 min. and gently vortex. Spin briefly to ensure all RNA solution is down to the bottom of the tube before opening cap. Gently transfer RNA solution into a 5 ml or larger tube. Add another 3 ml of DEPC water (total 4 ml of volume).
Add the following volumes of reagents.
Add 20 μl template mix per reaction (i.e. 20 ng of POF per reaction or ˜3 nM)
(4) Incubate reaction at room temperature (22-25° C.) for 2 hours.
(5) Stop reaction by adding 50 μl of 170 mM EDTA.
Final concentration of EDTA is 85 mM.
(6) Prewet filters of Millipore Multiscreen filter plate by adding 200 μl of 0.5 M sodium phosphate buffer, pH 7.0 into each well. Let stand at room temperature for 2-3 min.
(7) Place the Multiscreen filter plate onto a Millipore Manifold and turn on vacuum to allow buffer to flow through. Turn off vacuum. Transfer 80 μl of the reaction product into each well of the filter plate. Let stand for 2-3 min. Turn on vacuum to filter reaction product.
(8) Turn off vacuum. Add 200 μl of 0.5 M sodium phosphate buffer, pH 7.0 into each well to wash filter. Turn on vacuum.
Repeat step (8) three more times.
(9) Remove polypropylene bottom. Spot dry filter at the bottom with paper towel. Air dry filter plate on a bench for 1 hr. Add 40 μl Super Mix scintillant. Seal top of the plate with a tape. Place plate into a Packard carrier or MicroBeta carrier.
(10) Count plate using a Packard Topcount or MicroBeta counter. Program 10 for ^33P in Top count or ^33P program in micro-beta.
Percent inhibition is calculated after background subtraction as a percent reduction of activity relative to the positive control (average value of the plate excluding the negative controls).

T1 sequence (P26663 2420-2997, looked up, natural form): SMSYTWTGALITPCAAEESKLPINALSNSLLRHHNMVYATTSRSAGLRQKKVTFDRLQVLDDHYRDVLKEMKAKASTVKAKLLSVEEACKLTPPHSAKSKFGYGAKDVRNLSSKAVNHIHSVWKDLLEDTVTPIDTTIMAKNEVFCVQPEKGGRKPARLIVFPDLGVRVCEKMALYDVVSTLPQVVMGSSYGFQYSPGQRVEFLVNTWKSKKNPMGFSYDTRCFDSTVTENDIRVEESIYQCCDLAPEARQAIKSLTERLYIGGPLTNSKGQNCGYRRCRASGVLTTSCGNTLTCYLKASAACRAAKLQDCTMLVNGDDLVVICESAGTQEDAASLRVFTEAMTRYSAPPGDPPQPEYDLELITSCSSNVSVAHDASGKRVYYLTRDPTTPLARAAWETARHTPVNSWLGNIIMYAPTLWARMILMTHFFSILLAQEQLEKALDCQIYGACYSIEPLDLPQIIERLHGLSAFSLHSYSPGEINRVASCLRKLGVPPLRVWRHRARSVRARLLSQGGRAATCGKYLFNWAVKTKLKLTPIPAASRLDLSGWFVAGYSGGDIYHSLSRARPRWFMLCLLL

Structure (SMILES) | IC50 [nM]
O=C(O)[C@H]1CSCN1S(=O)(=O)c1cc(Cl)cc(Cl)c1O [Example 51, (4S)-3-[(3,5-dichloro-2-hydroxyphenyl)sulfonyl]-1,3-thiazolidine-4-carboxylic acid] | 1710
O=C(O)[C@H]1CCCCN1S(=O)(=O)c1cc(Cl)cc(Br)c1O [Example 40, (2R)-1-[(3-bromo-5-chloro-2-hydroxyphenyl)sulfonyl]piperidine-2-carboxylic acid] | 1160
Cc1cc(N)c(S(=O)(=O)N2CCC[C@H]2C(=O)O)cc1Cl [Example 20, 1-[(2-amino-5-chloro-4-methylphenyl)sulfonyl]-L-proline] | 5950
O=C(O)[C@@H]1CCCN1S(=O)(=O)c1cc(F)cc(Cl)c1O [Example 14, 1-[(3-chloro-5-fluoro-2-hydroxyphenyl)sulfonyl]-L-proline] | 2050
O=C(c1ccccc1)[C@@H]1CCCN1S(=O)(=O)c1cc(Cl)cc(Cl)c1O [Example 30, {(2S)-1-[(3,5-dichloro-2-hydroxyphenyl)sulfonyl]pyrrolidin-2-yl}(phenyl)methanone] | 7520
O=C(O)[C@@H]1CCCN1S(=O)(=O)c1c(Cl)cc(Cl)cc1Cl [Example 32, 1-[(2,4,6-trichlorophenyl)sulfonyl]-L-proline] | 9600
O=C(O)[C@H]1CCCN1S(=O)(=O)c1cc(Br)cc(Cl)c1O [Example 22, 1-[(5-bromo-3-chloro-2-hydroxyphenyl)sulfonyl]-D-proline] | 4810
CCC(=O)[C@@H]1CCCN1S(=O)(=O)c1cc(Cl)cc(Cl)c1O [Example 29, 1-{(2S)-1-[(3,5-dichloro-2-hydroxyphenyl)sulfonyl]pyrrolidin-2-yl}propan-1-one] | 7290
O=C(O)[C@H]1CCCCN1S(=O)(=O)c1cc(Cl)cc(Cl)c1O [Example 42, (2R)-1-[(3,5-dichloro-2-hydroxyphenyl)sulfonyl]piperidine-2-carboxylic acid] | 2010
O=C(O)[C@@H]1CCCCN1S(=O)(=O)c1cc(Cl)cc(Cl)c1O [Example 43, (2S)-1-[(3,5-dichloro-2-hydroxyphenyl)sulfonyl]piperidine-2-carboxylic acid] | 7100
O=S(=O)(c1cc(Cl)cc(Cl)c1O)N1CCC[C@H]1c1nn[nH]n1 [Example 1, 2,4-dichloro-6-{[(2S)-2-(2H-tetrazol-5-yl)pyrrolidin-1-yl]sulfonyl}phenol] | 560
O=C(O)[C@@H]1CCCCN1S(=O)(=O)c1cc(F)cc(Cl)c1O [Example 41, (2S)-1-[(3-chloro-5-fluoro-2-hydroxyphenyl)sulfonyl]piperidine-2-carboxylic acid] | 1890
Cc1cc(S(=O)(=O)N2C[C@H](O)C[C@H]2C(=O)O)c(N)cc1Cl [Example 28, (4R)-1-[(2-amino-4-chloro-5-methylphenyl)sulfonyl]-4-hydroxy-L-proline] | 10000
Cc1cc(S(=O)(=O)N2CSC[C@@H]2C(=O)O)c(N)cc1Cl [Example 55, (4S)-3-[(2-amino-4-chloro-5-methylphenyl)sulfonyl]-1,3-thiazolidine-4-carboxylic acid] | 7500
Cc1cc(N)c(S(=O)(=O)N2CSC[C@H]2C(=O)O)cc1Cl [Example 58, (4R)-3-[(2-amino-5-chloro-4-methylphenyl)sulfonyl]-1,3-thiazolidine-4-carboxylic acid] | 1980
O=C(O)[C@@H]1CSCN1S(=O)(=O)c1cc(F)cc(Cl)c1O [Example 49, (4R)-3-[(3-chloro-5-fluoro-2-hydroxyphenyl)sulfonyl]-1,3-thiazolidine-4-carboxylic acid] | 2130
O=C(O)[C@@H]1C[C@@H](O)CN1S(=O)(=O)c1cc(Cl)cc(Cl)c1O [Example 10, (4R)-1-[(3,5-dichloro-2-hydroxyphenyl)sulfonyl]-4-hydroxy-L-proline] | 670

Structure (SMILES) | IC50 [nM]
Cc1cc(N)c(S(=O)(=O)N2C[C@@H](O)C[C@@H]2C(=O)O)cc1Cl [Example 19, (4S)-1-[(2-amino-5-chloro-4-methylphenyl)sulfonyl]-4-hydroxy-D-proline] | 4050
O=C(O)[C@@H]1CCCN1S(=O)(=O)c1cc(Br)cc(Cl)c1O [Example 8, 1-[(5-bromo-3-chloro-2-hydroxyphenyl)sulfonyl]-L-proline] | 400
O=C(O)[C@@H]1CSCN1S(=O)(=O)c1cc(Br)cc(Br)c1O [Example 48, (4R)-3-[(3,5-dibromo-2-hydroxyphenyl)sulfonyl]-1,3-thiazolidine-4-carboxylic acid] | 460
O=C(O)[C@@H]1CCCN1S(=O)(=O)c1cc(Br)cc(Br)c1O [Example 9, 1-[(3,5-dibromo-2-hydroxyphenyl)sulfonyl]-L-proline] | 560
Cc1cc(NC(=O)C2CC2)c(S(=O)(=O)N2CCC[C@H]2C(=O)O)cc1Cl [Example 33, 1-({5-chloro-2-[(cyclopropylcarbonyl)amino]-4-methylphenyl}sulfonyl)-L-proline] | 8680
O=C(O)[C@H]1CSCN1S(=O)(=O)c1cc(Cl)c(Cl)c(Cl)c1O [Example 46, (4S)-3-[(3,4,5-trichloro-2-hydroxyphenyl)sulfonyl]-1,3-thiazolidine-4-carboxylic acid] | 260
Cc1cc(N)c(S(=O)(=O)N2CCCC[C@@H]2C(=O)O)cc1Cl [Example 44, (2R)-1-[(2-amino-5-chloro-4-methylphenyl)sulfonyl]piperidine-2-carboxylic acid] | 7900
N#C[C@@H]1CCCN1S(=O)(=O)c1cc(Cl)cc(Cl)c1O [Example 2, (2S)-1-[(3,5-dichloro-2-hydroxyphenyl)sulfonyl]pyrrolidine-2-carbonitrile] | 1040
O=C(O)[C@H]1CCCCN1S(=O)(=O)c1cc(Cl)c(Cl)c(Cl)c1O [Example 38, (2R)-1-[(3,4,5-trichloro-2-hydroxyphenyl)sulfonyl]piperidine-2-carboxylic acid] | 380
O=C(O)[C@@H]1CSCN1S(=O)(=O)c1cc(Cl)cc(Cl)c1O [Example 47, (4R)-3-[(3,5-dichloro-2-hydroxyphenyl)sulfonyl]-1,3-thiazolidine-4-carboxylic acid] | 240
CC(=O)[C@@H]1CCCN1S(=O)(=O)c1cc(Cl)cc(Cl)c1O [Example 16, 1-{(2S)-1-[(3,5-dichloro-2-hydroxyphenyl)sulfonyl]pyrrolidin-2-yl}ethanone] | 2620
O=S(=O)(c1cc(Cl)cc(Cl)c1O)N1CCC[C@H]1CO [Example 21, 2,4-dichloro-6-{[(2S)-2-(hydroxymethyl)pyrrolidin-1-yl]sulfonyl}phenol] | 6100
O=C(O)[C@@H]1CSCN1S(=O)(=O)c1cc(Cl)cc(Br)c1O [Example 56, (4R)-3-[(3-bromo-5-chloro-2-hydroxyphenyl)sulfonyl]-1,3-thiazolidine-4-carboxylic acid] | 11200
O=C(O)[C@@H]1C[C@@H](O)CN1S(=O)(=O)c1cc(Cl)c(Cl)c(Cl)c1O [Example 3, (4R)-4-hydroxy-1-[(3,4,5-trichloro-2-hydroxyphenyl)sulfonyl]-L-proline] | 70
O=C(O)[C@H]1CCCN1S(=O)(=O)c1cc(Cl)cc(Cl)c1O [Example 31, 1-[(3,5-dichloro-2-hydroxyphenyl)sulfonyl]-D-proline] | 6450
O=C(O)[C@@H]1CCCN1S(=O)(=O)c1cc(Cl)cc(Br)c1O [Example 5, 1-[(3-bromo-5-chloro-2-hydroxyphenyl)sulfonyl]-L-proline] | 260
